Data: ChEMBL document CHEMBL1201862, “PubChem BioAssay data set” (2004)
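Protocol summary: plate cells (96-well), add compound at 5 concentrations, incubate 48 h, interpolate endpoints linearly. The concentration for 50% growth inhibition is given as GI50.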 Active and inactive are the calls of the source. No stated cut-off is given here; in the data, active = GI50 up to about 1.1 µM and inactive = higher.

Assays:
Assay in all cases: growth of human tumour cells (NCI), 48 h
[1] = test system: OVCAR-8
[2] = test system: UACC-257
[3] = test system: SF-539
[4] = test system: SNB-75
[5] = test system: NCI-H522
[6] = test system: HOP-62
[7] = test system: SK-OV-3
[8] = test system: MOLT-4
[9] = test system: LXFL 529
[10] = test system: DMS-114
[11] = test system: A549
[12] = test system: KM12
[13] = test system: SK-MEL-2
[14] = test system: HL-60
[15] = test system: SK-MEL-5
[16] = test system: LOX IMVI
[17] = test system: KM-20L2
[18] = test system: M19-MEL
[19] = test system: TK-10
[20] = test system: SW-620
[21] = test system: OVCAR-5
[22] = test system: NCI-H460
[23] = test system: SK-MEL-28
[24] = test system: UO-31
[25] = test system: IGROV-1
[26] = test system: HOP-18
[27] = test system: OVCAR-3
[28] = test system: K562
[29] = test system: HCT-15
[30] = test system: EKVX
[31] = test system: RPMI-8226
[32] = test system: SF-295
[33] = test system: SF-268
[34] = test system: HCC 2998
[35] = test system: SN12C
[36] = test system: RXF 393
[37] = test system: A498
[38] = test system: M14
[39] = test system: U-251
[40] = test system: NCI-H226
[41] = test system: SNB-19
[42] = test system: Malme-3M
[43] = test system: COLO 205
[44] = test system: NCI-H23
[45] = test system: UACC-62
[46] = test system: CCRF-CEM
[47] = test system: ACHN
[48] = test system: SNB-78
[49] = test system: 786-0
[50] = test system: MDA-MB-435
[51] = test system: PC-3
[52] = test system: OVCAR-4
[53] = test system: SR
[54] = test system: HT-29
[55] = test system: NCI/ADR-RES
[56] = test system: HCT-116
[57] = test system: BT-549
[58] = test system: HOP-92
[59] = test system: Hs-578T
[60] = test system: MDA-MB-231
[61] = test system: DU-145
[62] = test system: MDA-N
[63] = test system: MCF7
[64] = test system: DMS-273

## N=C(N)Cn1cnc2ccccc21
[1]
  GI50: > 100 µM (inactive)
[2]
  GI50: > 100 µM (inactive)
[3]
  GI50: > 100 µM (inactive)
[4]
  GI50: > 100 µM (inactive)
[5]
  GI50: > 100 µM (inactive)
[6]
  GI50: > 100 µM (inactive)
[7]
  GI50: > 100 µM (inactive)
[8]
  GI50: > 100 µM (inactive)
[9]
  GI50: > 100 µM (inactive)
[10]
  GI50: > 100 µM (inactive)
[11]
  GI50: > 100 µM (inactive)
[12]
  GI50: > 100 µM (inactive)
[13]
  GI50: > 100 µM (inactive)
[14]
  GI50: > 100 µM (inactive)
[15]
  GI50: > 100 µM (inactive)
[16]
  GI50: > 100 µM (inactive)
[17]
  GI50: > 100 µM (inactive)
[18]
  GI50: > 100 µM (inactive)
[19]
  GI50: > 100 µM (inactive)
[20]
  GI50: > 100 µM (inactive)
[21]
  GI50: > 100 µM (inactive)
[22]
  GI50: > 100 µM (inactive)
[23]
  GI50: > 100 µM (inactive)
[24]
  GI50: > 100 µM (inactive)
[25]
  GI50: > 100 µM (inactive)
[26]
  GI50: > 100 µM (inactive)
[27]
  GI50: > 100 µM (inactive)
[28]
  GI50: > 100 µM (inactive)
[29]
  GI50: > 100 µM
[30]
  GI50: > 100 µM (inactive)
[31]
  GI50: > 100 µM (inactive)
[32]
  GI50: > 100 µM (inactive)
[33]
  GI50: > 100 µM (inactive)
[34]
  GI50: > 100 µM (inactive)
[35]
  GI50: > 100 µM (inactive)
[36]
  GI50: > 100 µM (inactive)
[37]
  GI50: > 100 µM (inactive)
[38]
  GI50: > 100 µM (inactive)
[39]
  GI50: > 100 µM (inactive)
[40]
  GI50: > 100 µM (inactive)
[41]
  GI50: > 100 µM (inactive)
[42]
  GI50: > 100 µM (inactive)
[43]
  GI50: > 100 µM (inactive)
[44]
  GI50: > 100 µM (inactive)
[45]
  GI50: > 100 µM (inactive)
[46]
  GI50: > 100 µM (inactive)
[47]
  GI50: > 100 µM (inactive)
[48]
  GI50: > 100 µM (inactive)
[49]
  GI50: > 100 µM (inactive)

## CCOC(=O)C1=C(N)N(c2ccccc2)/C(=C2\SC(=S)N(c3ccc(C)cc3)C2=O)S1
[1]
  GI50: 33.3 µM (inactive)
[2]
  GI50: 42.3 µM (inactive)
[3]
  GI50: 14.8 µM (inactive)
[4]
  GI50: 3.99 µM (inactive)
[5]
  GI50: 34.3 µM (inactive)
[6]
  GI50: 22.2 µM (inactive)
[50]
  GI50: > 100 µM (inactive)
[7]
  GI50: 26.9 µM (inactive)
[8]
  GI50: 60.8 µM (inactive)
[9]
  GI50: 59.2 µM (inactive)
[11]
  GI50: 52.1 µM (inactive)
[12]
  GI50: > 100 µM (inactive)
[13]
  GI50: 73.3 µM (inactive)
[14]
  GI50: 71.6 µM (inactive)
[15]
  GI50: 54.8 µM (inactive)
[18]
  GI50: > 100 µM (inactive)
[51]
  GI50: 51.4 µM (inactive)
[52]
  GI50: 18 µM (inactive)
[19]
  GI50: 48.4 µM (inactive)
[53]
  GI50: > 100 µM (inactive)
[20]
  GI50: > 100 µM (inactive)
[21]
  GI50: 61.9 µM (inactive)
[54]
  GI50: 47.3 µM (inactive)
[55]
  GI50: 50.5 µM (inactive)
[22]
  GI50: 75.2 µM (inactive)
[56]
  GI50: 63.2 µM (inactive)
[57]
  GI50: 90.2 µM (inactive)
[23]
  GI50: 23.4 µM (inactive)
[24]
  GI50: 68.2 µM (inactive)
[25]
  GI50: > 100 µM (inactive)
[26]
  GI50: 45.2 µM (inactive)
[27]
  GI50: 27.9 µM (inactive)
[58]
  GI50: 30.5 µM (inactive)
[28]
  GI50: 36.8 µM (inactive)
[59]
  GI50: 25 µM (inactive)
[29]
  GI50: > 100 µM
[30]
  GI50: > 100 µM (inactive)
[31]
  GI50: 93.1 µM (inactive)
[60]
  GI50: 22.6 µM (inactive)
[32]
  GI50: 21 µM (inactive)
[33]
  GI50: 29.5 µM (inactive)
[34]
  GI50: 50.1 µM (inactive)
[35]
  GI50: 35.8 µM (inactive)
[37]
  GI50: 31.4 µM (inactive)
[38]
  GI50: > 100 µM (inactive)
[61]
  GI50: 89.9 µM (inactive)
[39]
  GI50: 29.6 µM (inactive)
[40]
  GI50: 33.6 µM (inactive)
[41]
  GI50: 29.7 µM (inactive)
[42]
  GI50: 51.1 µM (inactive)
[43]
  GI50: > 100 µM (inactive)
[44]
  GI50: 47.4 µM (inactive)
[45]
  GI50: 88.7 µM (inactive)
[46]
  GI50: 54.2 µM (inactive)
[62]
  GI50: > 100 µM (inactive)
[47]
  GI50: 76 µM (inactive)
[63]
  GI50: 87.5 µM (inactive)
[49]
  GI50: 29.3 µM (inactive)

## COC(=O)CN1CCS/C1=N/C#N
[5]
  GI50: > 100 µM (inactive)
[6]
  GI50: > 100 µM (inactive)
[7]
  GI50: > 100 µM (inactive)
[8]
  GI50: > 100 µM (inactive)
[11]
  GI50: > 100 µM (inactive)
[12]
  GI50: > 100 µM (inactive)
[14]
  GI50: > 100 µM (inactive)
[19]
  GI50: > 100 µM (inactive)
[53]
  GI50: > 100 µM (inactive)
[64]
  GI50: > 100 µM (inactive)
[21]
  GI50: > 100 µM (inactive)
[54]
  GI50: > 100 µM (inactive)
[22]
  GI50: > 100 µM (inactive)
[23]
  GI50: > 100 µM (inactive)
[24]
  GI50: > 100 µM (inactive)
[25]
  GI50: > 100 µM (inactive)
[58]
  GI50: > 100 µM (inactive)
[28]
  GI50: > 100 µM (inactive)
[30]
  GI50: > 100 µM (inactive)
[33]
  GI50: > 100 µM (inactive)
[36]
  GI50: > 100 µM (inactive)
[37]
  GI50: > 100 µM (inactive)
[38]
  GI50: > 100 µM (inactive)
[39]
  GI50: > 100 µM (inactive)
[40]
  GI50: > 100 µM (inactive)
[41]
  GI50: > 100 µM (inactive)
[44]
  GI50: > 100 µM (inactive)
[45]
  GI50: > 100 µM (inactive)
[46]
  GI50: > 100 µM (inactive)
[48]
  GI50: > 100 µM (inactive)

## COc1cc(C2c3cc4c(cc3[C@@H](NCCCN3CCCC3=O)C3COC(=O)[C@H]23)OCO4)cc(OC)c1O (some centres undefined)
[3]
  GI50: 0.393 µM (active)
[5]
  GI50: 0.319 µM (active)
[26]
  GI50: > 17.5 µM (inactive)
[42]
  GI50: 0.405 µM (active)
[43]
  GI50: 4.17 µM (inactive)
[44]
  GI50: 0.515 µM (active)
[47]
  GI50: 2.92 µM (inactive)
